Laboratory results from PMC8494060 (Science translational medicine, 2020).

Target: T1, OGA (Rattus norvegicus, UniProt Q8VIJ5)
T1 sequence (Q8VIJ5 1-916): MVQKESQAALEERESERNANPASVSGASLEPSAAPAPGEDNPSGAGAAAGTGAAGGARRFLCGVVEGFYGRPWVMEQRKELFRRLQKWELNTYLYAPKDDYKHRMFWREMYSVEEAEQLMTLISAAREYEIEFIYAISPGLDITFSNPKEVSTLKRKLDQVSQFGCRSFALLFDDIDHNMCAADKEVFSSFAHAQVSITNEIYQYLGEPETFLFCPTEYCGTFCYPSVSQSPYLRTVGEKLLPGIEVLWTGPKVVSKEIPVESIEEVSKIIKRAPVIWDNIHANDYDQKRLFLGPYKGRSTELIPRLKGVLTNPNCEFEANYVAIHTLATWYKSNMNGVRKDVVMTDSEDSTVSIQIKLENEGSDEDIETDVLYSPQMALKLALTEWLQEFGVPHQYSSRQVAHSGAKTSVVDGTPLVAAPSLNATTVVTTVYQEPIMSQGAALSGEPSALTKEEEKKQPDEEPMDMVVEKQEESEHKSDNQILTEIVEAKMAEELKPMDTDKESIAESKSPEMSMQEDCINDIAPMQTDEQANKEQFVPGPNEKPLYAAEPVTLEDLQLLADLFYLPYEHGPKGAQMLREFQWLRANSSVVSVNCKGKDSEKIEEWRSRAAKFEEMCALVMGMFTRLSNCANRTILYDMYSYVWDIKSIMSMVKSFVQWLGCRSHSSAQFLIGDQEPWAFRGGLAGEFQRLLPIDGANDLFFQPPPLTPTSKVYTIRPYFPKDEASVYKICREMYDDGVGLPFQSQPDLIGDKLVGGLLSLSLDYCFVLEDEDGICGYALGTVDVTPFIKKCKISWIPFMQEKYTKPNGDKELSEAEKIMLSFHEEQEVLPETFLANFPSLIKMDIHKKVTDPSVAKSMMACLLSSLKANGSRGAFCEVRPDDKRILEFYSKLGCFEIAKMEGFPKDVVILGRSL
Test: Rat OGA occupancy of thiamet G
Format: in vivo
Details: 2 h before tracer

## CCN=C1N[C@@H]2[C@@H](O)[C@H](O)[C@@H](CO)O[C@@H]2S1 [thiamet G]
Thiamet G 30 mg/kg p.o.
  LSN3316612 tracer uptake blocked: 80%
Thiamet G 100 mg/kg p.o.
  LSN3316612 tracer uptake blocked: 94%
